One experiment can be described thus: Viking EC50, 50% NHS. Type of experiment: cell-based. To be noted: method not described, read-out: Viking EC50_50% NHS.
For experiment [1], the system named is infected PBMCs (VSV-G pseudotyped HIV virus). Kind of experiment: cells. It counts as cell-based, human. To be noted: Homo sapiens, PBMC, read-out: SMACK EC50_50% NHS.

As for `Cc1c(C#N)cc(C(F)F)cc1Oc1c(C(F)(F)C(F)(F)F)ncn(Cc2ccc[nH]c2=O)c1=O` [Example 23, 5-(Difluoromethyl)-2-Methyl-3-((6-Oxo-1-((2-Oxo-1,2-Dihydropyridin-3-Yl)Methyl)-4-(Perfluoroethyl)-1,6-Dihydropyrimidin-5-Yl)Oxy)Benzonitrile], the EC50 was 53 nM in the experiment “Viking EC50, 50% NHS” and 234 nM in experiment [1].

For `Cc1cc(C#N)c(C)c(Oc2c(C(F)(F)C(F)F)ncn(Cc3c(C)cc(C)[nH]c3=O)c2=O)c1` [Example 24, 3-((1-((4,6-Dimethyl-2-Oxo-1,2-Dihydropyridin-3-Yl)Methyl)-6-Oxo-4-(1,1,2,2-Tetrafluoroethyl)-1,6-Dihydropyrimidin-5-Yl)Oxy)-2,5-Dimethylbenzonitrile], the EC50 was found to be 168 nM in “Viking EC50, 50% NHS” and 346 nM in experiment [1].

For `Cc1c(C#N)cc(C(F)F)cc1Oc1c(C(F)(F)C(F)F)ncn(Cc2ccc(CO)[nH]c2=O)c1=O` [Example 25, 5-(Difluoromethyl)-3-((1-((6-(Hydroxymethyl)-2-Oxo-1,2-Dihydropyridin-3-Yl)Methyl)-6-Oxo-4-(1,1,2,2-Tetrafluoroethyl)-1,6-Dihydropyrimidin-5-Yl)Oxy)-2-Methylbenzonitrile], the EC50 is 19.6 nM in the experiment “Viking EC50, 50% NHS” and 72.7 nM in experiment [1].

Take `COCc1ccc(Cn2cnc(C(F)(F)C(F)F)c(Oc3cc(C(F)F)cc(C#N)c3C)c2=O)c(=O)[nH]1` [Example 26, 5-(difluoromethyl)-3-((1-((6-(methoxymethyl)-2-oxo-1,2-dihydropyridin-3-yl)methyl)-6-oxo-4-(1,1,2,2-tetrafluoroethyl)-1,6-dihydropyrimidin-5-yl)oxy)-2-methylbenzonitrile]: the EC50 in “Viking EC50, 50% NHS” was 29.3 nM; in experiment [1], 90.1 nM.

Regarding `Cc1c(C#N)cc(C(F)F)cc1Oc1c(C(F)(F)C(F)F)ncn(Cc2ccc(-c3cn[nH]c3)[nH]c2=O)c1=O` [Example 27, 5-(difluoromethyl)-3-((1-((2-hydroxy-6-(1H-pyrazol-4-yl)pyridin-3-yl)methyl)-6-oxo-4-(1,1,2,2-tetrafluoroethyl)-1,6-dihydropyrimidin-5-yl)oxy)-2-methylbenzonitrile], the EC50 in “Viking EC50, 50% NHS” came to 77.2 nM; in experiment [1], 292 nM.

With `Cc1c(C#N)cc(C(F)F)cc1Oc1c(C(F)(F)C(F)F)ncn(Cc2ccc(C(C)(C)O)[nH]c2=O)c1=O` [Example 29, 5-(Difluoromethyl)-3-((1-((6-(2-Hydroxypropan-2-Yl)-2-Oxo-1,2-Dihydropyridin-3-Yl)Methyl)-6-Oxo-4-(1,1,2,2-Tetrafluoroethyl)-1,6-Dihydropyrimidin-5-Yl)Oxy)-2-Methylbenzonitrile], the EC50 turned out to be 29.8 nM in the experiment “Viking EC50, 50% NHS” and 187 nM in experiment [1].

Take `N#Cc1cc(Cl)cc(Oc2c(C(F)(F)F)ncn(Cc3ccc(-c4cn[nH]c4)[nH]c3=O)c2=O)c1` [Example 30, 3-Chloro-5-((6-Oxo-1-((2-Oxo-6-(1H-Pyrazol-4-Yl)-1,2-Dihydropyridin-3-Yl)Methyl)-4-(Trifluoromethyl)-1,6-Dihydropyrimidin-5-Yl)Oxy)Benzonitrile]: the EC50 in the experiment “Viking EC50, 50% NHS” worked out at 30.1 nM; in experiment [1], 415 nM.

Turning to `N#Cc1cc(Cl)cc(Oc2c(C(F)(F)C(F)F)ncn(Cc3ccc(CO)[nH]c3=O)c2=O)c1F` [Example 31, 5-Chloro-2-Fluoro-3-((1-((6-(Hydroxymethyl)-2-Oxo-1,2-Dihydropyridin-3-Yl)Methyl)-6-Oxo-4-(1,1,2,2-Tetrafluoroethyl)-1,6-Dihydropyrimidin-5-Yl)Oxy)Benzonitrile], the EC50 came to 20.7 nM in “Viking EC50, 50% NHS” and 86.8 nM in experiment [1].

Consider `N#Cc1cc(Oc2c(C(F)(F)F)ncn(Cc3cc(F)c[nH]c3=O)c2=O)cc(C(F)F)c1` [Example 35], for which the EC50 in “Viking EC50, 50% NHS” was determined as 15.6 nM; in experiment [1] it was 314 nM.

For the compound `N#Cc1cc(Cl)cc(Oc2c(C(F)(F)F)ncn(Cc3cc(F)c[nH]c3=O)c2=O)c1Cl` [Example 36, 2,5-dichloro-3-((1-((5-fluoro-2-oxo-1,2-dihydropyridin-3-yl)methyl)-6-oxo-4-(trifluoromethyl)-1,6-dihydropyrimidin-5-yl)oxy)benzonitrile], the EC50 in the experiment “Viking EC50, 50% NHS” came to 50 nM; in experiment [1], 369 nM.

Take `N#Cc1cc(Cl)cc(Oc2c(C(F)(F)F)ncn(Cc3cc(F)c[nH]c3=O)c2=O)c1F` [Example 37, 5-chloro-2-fluoro-3-((1-((5-fluoro-2-oxo-1,2-dihydropyridin-3-yl)methyl)-6-oxo-4-(trifluoromethyl)-1,6-dihydropyrimidin-5-yl)oxy)benzonitrile]: the EC50 in the experiment “Viking EC50, 50% NHS” is 32.4 nM; in experiment [1], 413 nM.

As for `Cc1c(C#N)cc(C(F)F)cc1Oc1c(C(F)(F)C(F)(F)F)ncn(Cc2cc(F)c[nH]c2=O)c1=O` [Example 38, 5-(difluoromethyl)-3-((1-((5-fluoro-2-oxo-1,2-dihydropyridin-3-yl)methyl)-6-oxo-4-(perfluoroethyl)-1,6-dihydropyrimidin-5-yl)oxy)-2-methylbenzonitrile], the EC50 in the experiment “Viking EC50, 50% NHS” was determined as 96.8 nM; in experiment [1], 191 nM.

As to `Cc1ccc(Cn2cnc(C(F)(F)C(F)F)c(Oc3cc(Cl)cc(C#N)c3F)c2=O)c(=O)[nH]1` [Example 39, 5-Chloro-2-Fluoro-3-((1-((6-Methyl-2-Oxo-1,2-Dihydropyridin-3-Yl)Methyl)-6-Oxo-4-(1,1,2,2-Tetrafluoroethyl)-1,6-Dihydropyrimidin-5-Yl)Oxy)Benzonitrile], the EC50 is 33.5 nM in “Viking EC50, 50% NHS” and 162 nM in experiment [1].

As for `Cc1cc(C)c(Cn2cnc(C(F)(F)C(F)F)c(Oc3cc(C#N)cc(C(F)F)c3)c2=O)c(=O)[nH]1` [Example 40, 3-(difluoromethyl)-5-((1-((4,6-dimethyl-2-oxo-1,2-dihydropyridin-3-yl)methyl)-6-oxo-4-(1,1,2,2-tetrafluoroethyl)-1,6-dihydropyrimidin-5-yl)oxy)benzonitrile], the EC50 in the experiment “Viking EC50, 50% NHS” is 39.2 nM; in experiment [1], 283 nM.

On to `Cc1cc(C)c(Cn2cnc(C(F)(F)CF)c(Oc3cc(C(F)F)cc(C#N)c3C)c2=O)c(=O)[nH]1` [Example 41, 5-(difluoromethyl)-3-((1-((4,6-dimethyl-2-oxo-1,2-dihydropyridin-3-yl)methyl)-6-oxo-4-(1,1,2-trifluoroethyl)-1,6-dihydropyrimidin-5-yl)oxy)-2-methylbenzonitrile], for which the EC50 came out at 59.8 nM in “Viking EC50, 50% NHS” and 283 nM in experiment [1].

Consider `Cc1cc(C)c(Cn2cnc(C(F)(F)F)c(Oc3cc(C(F)F)cc(C#N)c3C)c2=O)c(=O)[nH]1` [Example 42, 5-(Difluoromethyl)-3-((1-((4,6-Dimethyl-2-Oxo-1,2-Dihydropyridin-3-Yl)Methyl)-6-Oxo-4-(Trifluoromethyl)-1,6-Dihydropyrimidin-5-Yl)Oxy)-2-Methylbenzonitrile], for which the EC50 stood at 43.1 nM in the experiment “Viking EC50, 50% NHS” and 222 nM in experiment [1].

The values above are taken from patent US20250214962A1, “PYRIDINONE DERIVATIVES AS SELECTIVE CYTOTOXIC AGENTS AGAINST HIV INFECTED CELLS” (Merck Sharp & Dohme LLC, priority 2019, published 2025).
